The results in this text go back to US20090312521A1 (priority 2004, published 2009).

SMILES strings stand for the structures. In brackets after ≈: the same amount, converted by molar mass. Non-standard residues stand in square brackets, D forms with d. Residues, ends and D or L forms follow the SMILES beside them. β3hY = N[C@H](CC(=O)O)Cc1ccc(O)cc1; NMeS = CN[C@@H](CO)C(=O)O; β3hS = N[C@@H](CO)CC(=O)O; Ava = NCCCCC(=O)O; GABA = NCCCC(=O)O; Sar = CNCC(=O)O

The subject of this test is E. coli ATCC 11775. It is filed as cell-based. The conditions noted are these: ATCC 11775, 24 h. Here is the method:
Lyophilized peptides were dissolved in NB to give a concentration of 400 μM and filtered using 0.22 μm filter discs (Millex GV, Durapore). An overnight culture in NB was adjusted to 5×10^6 CFU/mL and inoculated into the micro titer plate wells (10 μL) containing each 100 μL of a serial 2-fold dilution (200-0.4 μM) of the tested peptide in NB. Plates were incubated while gently shaking at 37 ° C. for 24 h. Next, 80 μL suspension of each well was transported into a flat-bottom 96-well plate (Costar). The absorbance was measured at 600 nm using a μQuant micro plate spectrophotometer (Bio-Tek Instruments). All peptides were measured in quadruplo. The peptide with sequence […] (see Otvos Jr, […]; Otvos, B. I.; Hoffmann, […].; Wade, […].; Bulet, P. Protein Sci. 2000, 9, 742) was used as negative control.
`CC[C@H](C)[C@H](NC(=O)[C@@H]1CCCN1C(=O)[C@H](CCCNC(=N)N)NC(=O)[C@@H]1CCCN1C(=O)[C@H](Cc1c[nH]cn1)NC(=O)[C@H](CO)NC(=O)[C@@H](NC(=O)[C@@H]1CCCN1C(=O)[C@H](CCCNC(=N)N)NC(=O)[C@@H]1CCCN1C(=O)[C@H](CO)N(C)C(=O)[C@H](Cc1ccc(O)cc1)NC(=O)[C@@H]1CCCN1C(=O)[C@H](CCCNC(=N)N)NC(=O)[C@@H]1CCCN1C(=O)[C@H](CCCCN)NC(=O)CN)[C@@H](C)O)C(=O)N[C@@H](CCCNC(=N)N)C(=O)N[C@H](C(=O)O)C(C)C` [Peptide 2, GKPRP Y^MeSPRP TSHPR PIRV] (H-GKPRPY[NMeS]PRPTSHPRPIRV-OH) registered an MIC of 25 µM (≈ 55.3 µg/mL). The result for `CC[C@H](C)[C@H](NC(=O)[C@@H]1CCCN1C(=O)[C@H](CCCNC(=N)N)NC(=O)[C@@H]1CCCN1C(=O)[C@H](Cc1cnc[nH]1)NC(=O)[C@H](CO)NC(=O)[C@@H](NC(=O)[C@@H]1CCCN1C(=O)[C@H](CCCNC(=N)N)NC(=O)[C@@H]1CCCN1C(=O)[C@H](CO)NC(=O)[C@H](Cc1ccc(O)cc1)NC(=O)[C@@H]1CCCN1C(=O)[C@H](CCCNC(=N)N)NC(=O)[C@@H]1CCCN1C(=O)[C@H](CCCCN)NC(=O)CN)[C@@H](C)O)C(=O)N[C@@H](CCCNC(=N)N)C(=O)N[C@H](C(=O)O)C(C)C` [Peptide 1, GKPRP YSPRP TSHPR PIRV, reference compound] (H-GKPRPYSPRPTSHPRPIRV-OH) reads 6.3 µM (≈ 13.9 µg/mL); that for `CC[C@H](C)[C@H](NC(=O)[C@@H]1CCCN1C(=O)[C@H](CCCNC(=N)N)NC(=O)[C@@H]1CCCN1C(=O)[C@H](Cc1c[nH]cn1)NC(=O)[C@H](CO)NC(=O)[C@@H](NC(=O)[C@@H]1CCCN1C(=O)[C@H](CCCNC(=N)N)NC(=O)[C@@H]1CCCN1C(=O)[C@H](CO)NC(=O)[C@@H](Cc1ccc(O)cc1)NC(=O)[C@@H]1CCCN1C(=O)[C@H](CCCNC(=N)N)NC(=O)[C@@H]1CCCN1C(=O)[C@H](CCCCN)NC(=O)CN)[C@@H](C)O)C(=O)N[C@@H](CCCNC(=N)N)C(=O)N[C@H](C(=O)O)C(C)C` [Peptide 6, GKPRP DYSPRP TSHPR PIRV] (H-GKPRP[dY]SPRPTSHPRPIRV-OH; N-terminus assumed), 6.3 µM (≈ 13.9 µg/mL). In turn, `CC[C@H](C)[C@H](NC(=O)[C@@H]1CCCN1C(=O)[C@H](CCCNC(=N)N)NC(=O)[C@@H]1CCCN1C(=O)[C@H](Cc1c[nH]cn1)NC(=O)[C@H](CO)NC(=O)[C@@H](NC(=O)[C@@H]1CCCN1C(=O)[C@H](CCCNC(=N)N)NC(=O)[C@@H]1CCCN1C(=O)[C@H](CO)NC(=O)C[C@H](Cc1ccc(O)cc1)NC(=O)[C@@H]1CCCN1C(=O)[C@H](CCCNC(=N)N)NC(=O)[C@@H]1CCCN1C(=O)[C@H](CCCCN)NC(=O)CN)[C@@H](C)O)C(=O)N[C@@H](CCCNC(=N)N)C(=O)N[C@H](C(=O)O)C(C)C` [Peptide 9, GKPRP βYSPRP TSHPR PIRV] (H-GKPRP[β3hY]SPRPTSHPRPIRV-OH) gave an MIC of 3.1 µM (≈ 6.86 µg/mL). The compound `CC[C@H](C)[C@H](NC(=O)[C@@H]1CCCN1C(=O)[C@H](CCCNC(=N)N)NC(=O)[C@@H]1CCCN1C(=O)[C@H](Cc1c[nH]cn1)NC(=O)[C@H](CO)NC(=O)[C@@H](NC(=O)[C@@H]1CCCN1C(=O)[C@H](CCCNC(=N)N)NC(=O)[C@@H]1CCCN1C(=O)[C@@H](NC(=O)[C@H](Cc1ccc(O)cc1)NC(=O)[C@@H]1CCCN1C(=O)[C@H](CCCNC(=N)N)NC(=O)[C@@H]1CCCN1C(=O)[C@H](CCCCN)NC(=O)CNC)[C@@H](C)O)[C@@H](C)O)C(=O)N[C@@H](CCCNC(=N)N)C(=O)N[C@H](C(=O)O)C(C)C` [Peptide 15, SarKPRP YTPRP TSHPR PIRV] (H-[Sar]KPRPYTPRPTSHPRPIRV-OH; N-terminus assumed) yielded an MIC of 6.3 µM (≈ 14 µg/mL). Turning to `CC[C@H](C)[C@H](NC(=O)[C@@H]1CCCN1C(=O)[C@H](CCCNC(=N)N)NC(=O)[C@@H]1CCCN1C(=O)[C@H](Cc1c[nH]cn1)NC(=O)[C@H](CO)NC(=O)[C@@H](NC(=O)[C@@H]1CCCN1C(=O)[C@H](CCCNC(=N)N)NC(=O)[C@@H]1CCCN1C(=O)C[C@H](CO)NC(=O)[C@H](Cc1ccc(O)cc1)NC(=O)[C@@H]1CCCN1C(=O)[C@H](CCCNC(=N)N)NC(=O)[C@@H]1CCCN1C(=O)[C@H](CCCCN)NC(=O)CN)[C@@H](C)O)C(=O)N[C@@H](CCCNC(=N)N)C(=O)N[C@H](C(=O)O)C(C)C` [Peptide 10, GKPRP YβSPRP TSHPR PIRV] (H-GKPRPY[β3hS]PRPTSHPRPIRV-OH), the MIC came to 3.1 µM (≈ 6.86 µg/mL). With `CC[C@H](C)[C@H](NC(=O)[C@@H]1CCCN1C(=O)[C@H](CCCNC(=N)N)NC(=O)[C@@H]1CCCN1C(=O)[C@H](Cc1c[nH]cn1)NC(=O)[C@H](CO)NC(=O)[C@@H](NC(=O)[C@@H]1CCCN1C(=O)[C@H](CCCNC(=N)N)NC(=O)[C@@H]1CCCN1C(=O)[C@@H](NC(=O)[C@H](Cc1ccc(O)cc1)NC(=O)[C@@H]1CCCN1C(=O)[C@H](CCCNC(=N)N)NC(=O)[C@@H]1CCCN1C(=O)[C@H](CCCCN)NC(=O)CCCN)[C@@H](C)O)[C@@H](C)O)C(=O)N[C@@H](CCCNC(=N)N)C(=O)N[C@H](C(=O)O)C(C)C` [Peptide 13, AbuKPRP YTPRP TSHPR PIRV] (H-[GABA]KPRPYTPRPTSHPRPIRV-OH; N-terminus assumed), the MIC came to 6.3 µM (≈ 14.1 µg/mL).

On to `CC[C@H](C)[C@H](NC(=O)[C@@H]1CCCN1C(=O)[C@H](CCCNC(=N)N)NC(=O)[C@@H]1CCCN1C(=O)[C@H](Cc1c[nH]cn1)NC(=O)[C@H](CO)NC(=O)[C@@H](NC(=O)[C@@H]1CCCN1C(=O)[C@H](CCCNC(=N)N)NC(=O)[C@@H]1CCCN1C(=O)[C@@H](NC(=O)[C@H](Cc1ccc(O)cc1)NC(=O)[C@@H]1CCCN1C(=O)[C@H](CCCNC(=N)N)NC(=O)[C@@H]1CCCN1C(=O)[C@H](CCCCN)NC(=O)CCCCN)[C@@H](C)O)[C@@H](C)O)C(=O)N[C@@H](CCCNC(=N)N)C(=O)N[C@H](C(=O)O)C(C)C` [Peptide 12, AvaKPRP YTPRP TSHPR PIRV] (H-[Ava]KPRPYTPRPTSHPRPIRV-OH; N-terminus assumed), for which the MIC amounted to 6.3 µM (≈ 14.2 µg/mL).

Regarding `CC[C@H](C)[C@H](NC(=O)[C@@H]1CCCN1C(=O)[C@H](CCCNC(=N)N)NC(=O)[C@@H]1CCCN1C(=O)[C@H](Cc1c[nH]cn1)NC(=O)[C@H](CO)NC(=O)[C@@H](NC(=O)[C@@H]1CCCN1C(=O)[C@H](CCCNC(=N)N)NC(=O)[C@@H]1CCCN1C(=O)[C@H](CO)NC(=O)[C@H](Cc1ccccc1)NC(=O)[C@@H]1CCCN1C(=O)[C@H](CCCNC(=N)N)NC(=O)[C@@H]1CCCN1C(=O)[C@H](CCCCN)NC(=O)CN)[C@@H](C)O)C(=O)N[C@@H](CCCNC(=N)N)C(=O)N[C@H](C(=O)O)C(C)C` [Peptide 3, GKPRP FSPRP TSHPR PIRV] (H-GKPRPFSPRPTSHPRPIRV-OH; N-terminus assumed), the MIC came out at 3.1 µM (≈ 6.77 µg/mL). The compound `CC[C@H](C)[C@H](NC(=O)[C@@H]1CCCN1C(=O)[C@H](CCCNC(=N)N)NC(=O)[C@@H]1CCCN1C(=O)[C@H](Cc1c[nH]cn1)NC(=O)[C@H](CO)NC(=O)[C@@H](NC(=O)[C@@H]1CCCN1C(=O)[C@H](CCCNC(=N)N)NC(=O)[C@@H]1CCCN1C(=O)[C@@H](NC(=O)[C@H](Cc1ccccc1)NC(=O)[C@@H]1CCCN1C(=O)[C@H](CCCNC(=N)N)NC(=O)[C@@H]1CCCN1C(=O)[C@H](CCCCN)NC(=O)CN)[C@@H](C)O)[C@@H](C)O)C(=O)N[C@@H](CCCNC(=N)N)C(=O)N[C@H](C(=O)O)C(C)C` [Peptide 5, GKPRP FTPRP TSHPR PIRV] (H-GKPRPFTPRPTSHPRPIRV-OH; N-terminus assumed) had an MIC of 3.1 µM (≈ 6.81 µg/mL).
